Measured values reported in article PMC11208336 (Frontiers in Cellular and Infection Microbiology, 2024).

Target: T1, HmuY^Pe (Porphyromonas endodontalis, UniProt C3JC46)
T1 construct: gene POREN0001_0444
Experiment: biochemical

T1 sequence (C3JC46 entry or part of it): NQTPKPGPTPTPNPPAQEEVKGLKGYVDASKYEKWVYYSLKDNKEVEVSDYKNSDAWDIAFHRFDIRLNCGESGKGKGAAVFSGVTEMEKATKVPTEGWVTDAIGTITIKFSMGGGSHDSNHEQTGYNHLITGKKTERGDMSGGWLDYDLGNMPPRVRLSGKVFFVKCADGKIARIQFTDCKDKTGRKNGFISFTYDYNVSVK

## C=CC1=C(C)C2=Cc3c(C=C)c(C)c4[n]3[Fe][n]3c(c(C)c(CCC(=O)O)c3=CC3=NC(=C4)C(C)=C3CCC(=O)O)=CC1=N2 [Fe(II)heme]
  Kd: 41 nM
